The NIST ThermoML archive (doi:10.1021/acs.jced.7b00944)
Numbers after ± are expanded uncertainties.

Conditions: 298.2 K, 101.33 kPa, Liquid; for viscosity: Falling or rolling sphere viscometry; for mass density: Vibrating tube method

viscosity	mass density	Structure (SMILES)
4.238 ± 0.51 mPa·s	856.25 ± 6.1 kg/m3	C=CC(C)(O)CCC=C(C)C (stereo not drawn) [3,7-dimethyl-1,6-octadien-3-ol]
0.972 ± 0.12 mPa·s	840.73 ± 6 kg/m3	C=C(C)[C@H]1CC=C(C)CC1 [(R)-1-methyl-4-(1-methylethenyl)cyclohexene]
1.04 ± 0.12 mPa·s	786.1 ± 6 kg/m3	CCO [ethanol]
873.6 ± 140 mPa·s	1257.7 ± 6.1 kg/m3	OCC(O)CO [glycerol]
